Values of other authors, collected in patent publication US20070071809A1, “Ginger containing compositions to control pain” (priority 2005, published 2007).

Test system: osteoarthritis of the knee
Details: 1500 mg per day

SMILES: N[C@H]1C(O)O[C@H](CO)[C@@H](O)[C@@H]1O (some centres unmarked) [Glucosamine]
- knee pain in patients with osteoarthritis of the knee (212 patients, half glucosamine, half placebo): reduce knee pain
- pain scores versus placebo group (placebo group had worsened pain scores): statistically improved pain scores
